Here are results for 27 molecules from US9611264B1, “N-[2-(3-amino-2,5-dimethyl-1,1-dioxido-5,6-dihydro-2H-1,2,4-thiadiazin-5-yl)-1,3-thiazol-4-yl] amides” (Pfizer Inc., priority 2015, dated 2017).

Structures can show the parent of a compound that is named as a salt.

T1 sequence (P56817 46-457 limits assumed): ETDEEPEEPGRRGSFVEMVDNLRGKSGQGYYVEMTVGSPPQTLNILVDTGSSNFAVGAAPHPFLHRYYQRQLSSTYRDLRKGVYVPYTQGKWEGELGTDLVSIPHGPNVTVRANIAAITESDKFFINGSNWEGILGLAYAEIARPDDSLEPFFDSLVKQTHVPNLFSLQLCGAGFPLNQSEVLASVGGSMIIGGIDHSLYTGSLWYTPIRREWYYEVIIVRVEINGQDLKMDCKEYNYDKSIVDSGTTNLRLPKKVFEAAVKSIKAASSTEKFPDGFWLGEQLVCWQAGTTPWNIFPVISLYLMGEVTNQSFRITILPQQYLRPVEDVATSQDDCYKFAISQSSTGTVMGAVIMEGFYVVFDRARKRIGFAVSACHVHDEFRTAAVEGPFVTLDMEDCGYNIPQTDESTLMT

The assay has as its target T1, BACE1 enzyme (Homo sapiens, UniProt P56817).
T1 construct: transfected with a soluble BACE construct (BACE1deltaTM96His); His (C); made in house; host or cells: CHO-K1 cells (secreted into conditioned media)
Description: BACE1 Cell-Free Assay (fluorescence polarization, cleavage of synthetic APP substrate). Particulars: geometric mean of 2-4 determinations unless otherwise indicated (b: ≧5 determinations; c: single determination); 0.1 nM BACE1, 150 nM peptide substrate, pH 4.5, 3 hours at 37° C. In kind it is biochemical. The text has this: Beta-secretase (BACE) is one of the enzymes involved in the generation of the amyloid beta peptide found in the amyloid plaques of Alzheimer's disease patients. This assay measures the inhibition of the beta-secretase enzyme as it cleaves a non-native peptide.
A synthetic APP substrate that can be cleaved by beta-secretase having N-terminal biotin and made fluorescent by the covalent attachment of Oregon Green at the Cys residue is used to assay beta-secretase activity in the presence or absence of the inhibitory compounds. The substrate is Biotin-GLTNIKTEEISEISY^EVEFR-C[Oregon Green]KK-OH. The BACE1 enzyme is affinity purified material from conditioned media of CHO-K1 cells that have been transfected with a soluble BACE construct (BACE1deltaTM96His). Compounds are incubated in a ½ log dose response curve from a top concentration of 100 μM with BACE1 enzyme and the biotinylated fluorescent peptide in 384-well black plates (Thermo Scientific #4318). BACE1 is at a final concentration of 0.1 nM with a final concentration of peptide substrate of 150 nM in a reaction volume of 30 μL assay buffer [100 mM sodium acetate, pH 4.5 (brought to pH with acetic acid), and 0.001% Tween-20]. Plates are covered and incubated for 3 hours at 37° C. The reaction is stopped with the addition of 30 μL of 1.5 μM Streptavidin (Pierce, #21125). After a 10 minute incubation at room temperature, plates are read on a PerkinElmer EnVision for fluorescence polarization (Ex485 nm/Em530 nm). The activity of the beta-secretase enzyme is detected by changes in the fluorescence polarization that occur when the substrate is cleaved by the enzyme.
(Fluorescence polarisation rises when a labelled molecule tumbles more slowly, as on binding a larger partner.)
The IC50 is the concentration that gives 50% inhibition. High values mean a need for much substance, low ones inhibition by little substance. As for `CN1C(N)=N[C@@](C)(c2nc(NC(=O)c3ccc(OC(F)F)cn3)cs2)[C@H](C2CC2)S1(=O)=O` (single isomer, unassigned) [Example 3], the IC50 was 31200 nM. In the case of `CN1C(N)=N[C@](C)(c2nc(NC(=O)c3ccc(OC(F)F)cn3)cs2)[C@@H](C2CC2)S1(=O)=O` (single isomer, unassigned) [Example 4], inhibition was half-maximal at 103 nM (IC50). `CN1C(N)=N[C@](C)(c2nc(NC(=O)c3ccc(OC(F)F)cn3)cs2)[C@H](C2CC2)S1(=O)=O` (single isomer, unassigned) [Example 5]: the IC50 stood at 51 nM. For `CN1C(N)=N[C@@](C)(c2nc(NC(=O)c3ccc(OC(F)F)cn3)cs2)C(C)(C)S1(=O)=O` (single isomer, unassigned) [Example 7] the value was 4400 nM; for `CN1C(N)=N[C@](C)(c2nc(NC(=O)c3ccc(OC(F)F)cn3)cs2)C(C)(C)S1(=O)=O` (single isomer, unassigned) [Example 8], 78 nM. For `C[C@H]1[C@](C)(c2nc(NC(=O)c3ccc(OC(F)F)cn3)cs2)N=C(N)N(C)S1(=O)=O` (single isomer, unassigned) [Example 10] the value was 18000 nM. As for `C[C@@H]1[C@@](C)(c2nc(NC(=O)c3ccc(OC(F)F)cn3)cs2)N=C(N)N(C)S1(=O)=O` (single isomer, unassigned) [Example 11], the IC50 was determined as 136 nM.

For `C[C@H]1[C@@](C)(c2nc(NC(=O)c3ccc(OC(F)F)cn3)cs2)N=C(N)N(C)S1(=O)=O` (single isomer, unassigned) [Example 12], the IC50 was determined as 88 nM. On to `C[C@@H]1[C@](C)(c2nc(NC(=O)c3ccc(OC(F)F)cn3)cs2)N=C(N)N(C)S1(=O)=O` (single isomer, unassigned) [Example 13], for which the IC50 turned out to be 33800 nM.

As to `CN1C(N)=N[C@](C)(c2nc(NC(=O)c3ccc(OC(F)F)cn3)cs2)CS1(=O)=O` [Example 1, N-{2-[(5S)-3-amino-2,5-dimethyl-1,1-dioxido-5,6-dihydro-2H-1,2,4-thiadiazin-5-yl]-1,3-thiazol-4-yl}-5-(difluoromethoxy)pyridine-2-carboxamide], it took 60 nM to reach half-maximal inhibition (IC50). The molecule `CN1C(N)=N[C@](C)(c2nc(NC(=O)c3ccn(C(F)F)n3)cs2)CS1(=O)=O` [Example 2, N-{2-[(5S)-3-amino-2,5-dimethyl-1,1-dioxido-5,6-dihydro-2H-1,2,4-thiadiazin-5-yl]-1,3-thiazol-4-yl}-1-(difluoromethyl)-1H-pyrazole-3-carboxamide] had an IC50 of 19 nM. The figure for `CN1C(N)=NC(C)(c2nc(NC(=O)c3ccc(OC(F)F)cn3)cs2)C(C)(C)S1(=O)=O` (stereo not drawn) [Example 6, N-[2-(3-amino-2,5,6,6-tetramethyl-1,1-dioxido-5,6-dihydro-2H-1,2,4-thiadiazin-5-yl)-1,3-thiazol-4-yl]-5-(difluoromethoxy)pyridine-2-carboxamide] is 185 nM. Turning to `Cc1cc(OC(F)F)cnc1C(=O)Nc1csc([C@]2(C)CS(=O)(=O)N(C)C(N)=N2)n1` [Example 9, N-{2-[(5S)-3-amino-2,5-dimethyl-1,1-dioxido-5,6-dihydro-2H-1,2,4-thiadiazin-5-yl]-1,3-thiazol-4-yl}-5-(difluoromethoxy)-3-methylpyridine-2-carboxamide, methanesulfonic acid salt], half-maximal inhibition (IC50) was put at 29 nM. Molecule `CC[C@H]1[C@](C)(c2nc(NC(=O)c3ccc(OC(F)F)cn3)cs2)N=C(N)N(C)S1(=O)=O` [Example 14, N-{2-[(5R,6S)-3-amino-6-ethyl-2,5-dimethyl-1,1-dioxido-5,6-dihydro-2H-1,2,4-thiadiazin-5-yl]-1,3-thiazol-4-yl}-5-(difluoromethoxy)pyridine-2-carboxamide] showed an IC50 of 14200 nM. For `CC[C@@H]1[C@@](C)(c2nc(NC(=O)c3ccc(OC(F)F)cn3)cs2)N=C(N)N(C)S1(=O)=O` [Example 15, N-{2-[(5S,6R)-3-amino-6-ethyl-2,5-dimethyl-1,1-dioxido-5,6-dihydro-2H-1,2,4-thiadiazin-5-yl]-1,3-thiazol-4-yl}-5-(difluoromethoxy)pyridine-2-carboxamide] the value was 371 nM; for `CC[C@@H]1[C@](C)(c2nc(NC(=O)c3ccc(OC(F)F)cn3)cs2)N=C(N)N(C)S1(=O)=O` [Example 16, N-{2-[(5R,6R)-3-amino-6-ethyl-2,5-dimethyl-1,1-dioxido-5,6-dihydro-2H-1,2,4-thiadiazin-5-yl]-1,3-thiazol-4-yl}-5-(difluoromethoxy)pyridine-2-carboxamide], 3920 nM; for `CC[C@H]1[C@@](C)(c2nc(NC(=O)c3ccc(OC(F)F)cn3)cs2)N=C(N)N(C)S1(=O)=O` [Example 17, N-{2-[(5S,6S)-3-amino-6-ethyl-2,5-dimethyl-1,1-dioxido-5,6-dihydro-2H-1,2,4-thiadiazin-5-yl]-1,3-thiazol-4-yl}-5-(difluoromethoxy)pyridine-2-carboxamide], 200 nM. The figure for `CN1C(N)=N[C@](C)(c2nc(NC(=O)c3cnc(CF)cn3)cs2)CS1(=O)=O` [Example 18, N-{2-[(5S)-3-amino-2,5-dimethyl-1,1-dioxido-5,6-dihydro-2H-1,2,4-thiadiazin-5-yl]-1,3-thiazol-4-yl}-5-(fluoromethyl)pyrazine-2-carboxamide] is 246 nM. For `CN1C(N)=N[C@](C)(c2nc(NC(=O)c3cnc(C(F)F)cn3)cs2)CS1(=O)=O` [Example 19, N-{2-[(5S)-3-amino-2,5-dimethyl-1,1-dioxido-5,6-dihydro-2H-1,2,4-thiadiazin-5-yl]-1,3-thiazol-4-yl}-5-(difluoromethyl)pyrazine-2-carboxamide] the value was 172 nM; for `CN1C(N)=N[C@](C)(c2nc(NC(=O)c3ccc(Cl)cn3)cs2)CS1(=O)=O` [Example 20, N-{2-[(5S)-3-amino-2,5-dimethyl-1,1-dioxido-5,6-dihydro-2H-1,2,4-thiadiazin-5-yl]-1,3-thiazol-4-yl}-5-chloropyridine-2-carboxamide], 42 nM.

Molecule `CN1C(N)=N[C@](C)(c2nc(NC(=O)c3coc(CF)n3)cs2)CS1(=O)=O` [Example 21, N-{2-[(5S)-3-amino-2,5-dimethyl-1,1-dioxido-5,6-dihydro-2H-1,2,4-thiadiazin-5-yl]-1,3-thiazol-4-yl}-2-(fluoromethyl)-1,3-oxazole-4-carboxamide] came in with an IC50 of 11 nM. For `CN1C(N)=N[C@](C)(c2nc(NC(=O)c3cnc(OCC(C)(F)F)cn3)cs2)CS1(=O)=O` [Example 22, N-{2-[(5S)-3-amino-2,5-dimethyl-1,1-dioxido-5,6-dihydro-2H-1,2,4-thiadiazin-5-yl]-1,3-thiazol-4-yl}-5-(2,2-difluoropropoxy)pyrazine-2-carboxamide] the value was 134 nM.

Turning to `CC#CCOc1cnc(C(=O)Nc2csc([C@]3(C)CS(=O)(=O)N(C)C(N)=N3)n2)cn1` [Example 23, N-{2-[(5S)-3-amino-2,5-dimethyl-1,1-dioxido-5,6-dihydro-2H-1,2,4-thiadiazin-5-yl]-1,3-thiazol-4-yl}-5-(but-2-yn-1-yloxy)pyrazine-2-carboxamide], 13 nM corresponded to half-maximal inhibition (IC50). This IC50 is about 10-fold lower than that of the molecule before. The molecule `CC#CCOc1ccc(C(=O)Nc2csc([C@]3(C)CS(=O)(=O)N(C)C(N)=N3)n2)nc1` [Example 24, N-{2-[(5S)-3-amino-2,5-dimethyl-1,1-dioxido-5,6-dihydro-2H-1,2,4-thiadiazin-5-yl]-1,3-thiazol-4-yl}-5-(but-2-yn-1-yloxy)pyridine-2-carboxamide] returned an IC50 of 13 nM. Turning to `CN1C(N)=N[C@](C)(c2nc(NC(=O)c3ncc(OC(F)F)cc3Cl)cs2)CS1(=O)=O` [Example 25, N-{2-[(5S)-3-amino-2,5-dimethyl-1,1-dioxido-5,6-dihydro-2H-1,2,4-thiadiazin-5-yl]-1,3-thiazol-4-yl}-3-chloro-5-(difluoromethoxy)pyridine-2-carboxamide], the IC50 worked out at 23 nM. For `CN1C(N)=N[C@](C)(c2nc(NC(=O)c3ccc(C#N)cn3)cs2)CS1(=O)=O` [Example 26, N-{2-[(5S)-3-amino-2,5-dimethyl-1,1-dioxido-5,6-dihydro-2H-1,2,4-thiadiazin-5-yl]-1,3-thiazol-4-yl}-5-cyanopyridine-2-carboxamide] the value was 45 nM; for `Cc1cc(C#N)cnc1C(=O)Nc1csc([C@]2(C)CS(=O)(=O)N(C)C(N)=N2)n1` [Example 27, N-{2-[(5S)-3-amino-2,5-dimethyl-1,1-dioxido-5,6-dihydro-2H-1,2,4-thiadiazin-5-yl]-1,3-thiazol-4-yl}-5-cyano-3-methylpyridine-2-carboxamide], 9 nM.
